Results: patent US12390447B2, “Sirtuin 6 protein deacylase (SIRT6) activators” (Wisconsin Alumni Research Foundation, priority 2019, dated 2025)

Legend:
Format in all cases: biochemical
[1] = molecular target: SIRT6 K160A (Homo sapiens, UniProt Q8N6T7, K160A); experiment: Steady-state deacetylation rate of SIRT6 K160A with or without CL5D; conditions: SIRT6 K160A 1 μM, H3K9ac 40 μM, CL5D 50 μM, 25 minutes
Description: (§1) All sirtuin deacylation assays were carried out at 37° C. in 20 mM potassium phosphate pH 7.5 with 0.5 mM NAD^+, 10% DMSO, and 20 μM H3K9ac or H3K9myr peptides, unless otherwise noted in legend, and quenched by the addition of 2% TFA final. Steady-state reactions were constrained to less than 20% substrate turnover to prevent product inhibition. A variety of times were required to monitor SIRT6 deacetylation (2-60 minutes) under this restraint given the ability to strongly activate catalysis. In these cases, specific activities were determined and either reported as is or as fold-activation of specific activity. Deacylation reactions were analyzed by reversed phase high-performance liquid chromatography on a Kinetex C18 column (100 Å, 100×4.6 mm, 2.6 μm, Phenomenex) by monitoring the formation of the deacylated product at 214 nm. Deacetylation reactions were analyzed using a gradient of 33-100% B (30% acetonitrile with 0.05% TFA) in 8 min at 1.6 mL min^−1. Demyristoylation reactions were analyzed using a gradient of 3 to 100% B (acetonitrile with 0.05% TFA) in 10 min at 1.6 mL min^−1. The product and substrate peaks were quantified and ratio of these allowed for quantification of product formation. Three independent experiments were performed for each condition with averages being plotted and error bars representing the standard deviation of these replicates. […]

[2] = molecular target: SIRT6 (Homo sapiens, UniProt Q8N6T7); experiment: Histone deacetylation assay with acid extracted histones, H3K9ac immunoblot; conditions: 50 μM compound; histones 75 μg/mL from SAHA-treated HEK293T cells; SIRT6 1 μM
Description: HEK293T cells were cultured in Dulbecco's Modified Eagle Medium supplemented with 10% fetal bovine serum. Cells were treated with 10 μM SAHA for 24 hours prior to harvest. Cells were trypsinized and pelleted prior to washing twice with ice-cold PBS. Cells were then resuspended in 800 μL ice-cold 10 mM HEPES pH 7.4, 10 mM KCl, 0.05% NP-40, and histone deacetylase and protease inhibitors (1 mM sodium butyrate, 4 μM trichostatin A, 100 μM phenylmethylsulfonyl fluoride, 10 μg/mL leupeptin, and 10 μg/mL aprotinin) for 20 minutes. After a 1,000×g 10 minute spin at 4° C. the pelleted nuclei were resuspended in 0.2 M HCl and incubated on ice for 20 minutes. Following 10 minute spin at 21,000×g at 4° C. the acid extracted supernatant was neutralized with 1 M Tris-HCl pH 8 prior to BCA protein concentration measurement. Histone deacetylation assays were ran with 75 μg/mL extracted histones, 1 μM SIRT6, 50 μM CL5, CL5D or 5% DMSO control, 0.5 mM NAD^+, in 20 mM potassium phosphate pH 7.5. Reactions ran at 37° C. prior to quench with SDS loading dye and 5 minute boil. 540 ng of nuclei acid extract following sirtuin reaction were loaded for 15% SDS-PAGE followed by transfer to nitrocellulose. Membrane was blocked with 1% milk before blotted with anti-H3K9ac (Active Motiff 39917) 1:3000 and imaged. […] Bands were quantified using Image Studio Lite (LiCor). […]

[3] = molecular target: SIRT6 R65A (Homo sapiens, UniProt Q8N6T7, R65A); experiment: Steady-state deacetylation rate of SIRT6 R65A with or without CL5D; conditions: CL5D 50 μM
Description: as §1

Chain of SIRT6 R65A (Q8N6T7 whole entry R65A): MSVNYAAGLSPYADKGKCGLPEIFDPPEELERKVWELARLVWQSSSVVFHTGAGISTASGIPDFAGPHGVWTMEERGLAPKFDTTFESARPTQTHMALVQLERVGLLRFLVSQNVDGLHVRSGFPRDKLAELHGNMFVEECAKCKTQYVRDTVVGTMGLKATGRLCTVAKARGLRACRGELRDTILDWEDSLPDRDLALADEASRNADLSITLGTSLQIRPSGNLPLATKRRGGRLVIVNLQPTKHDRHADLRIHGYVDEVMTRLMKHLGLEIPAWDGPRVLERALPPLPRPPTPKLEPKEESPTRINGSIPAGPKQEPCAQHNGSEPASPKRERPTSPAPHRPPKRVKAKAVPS
Chain of SIRT6 (Q8N6T7 whole entry): as the sequence (Q8N6T7 whole entry R65A) above, with A65R counted along it
Chain of SIRT6 K160A (Q8N6T7 whole entry K160A): as the sequence (Q8N6T7 whole entry R65A) above, with A65R, K160A counted along it

RateCL5D [1]: 0.126 ± 0.006 µM/min | SIRT6 deacetylation at H3K9 of whole histone substrate (in words) [2]: stimulated | activation of SIRT6 R65A (in words) [3]: cannot be activated | RateCL5D ([3]; SIRT6 R65A 1 μM, H3K9ac 40 μM, 25 minutes): 0.014 ± 0.004 µM/min
Compound: O=C(O)c1ccc2c(c1)C(=O)N(c1ccc(N(C(=O)c3c(Cl)cc(Cl)cc3Cl)C(=O)c3c(Cl)cc(Cl)cc3Cl)c(Cl)c1)C2=O [CL-5D, 2-(3-chloro-4-(2,4,6-trichloro-N-(2,4,6-trichlorobenzoyl)benzamido)phenyl)-1,3-dioxoisoindoline-5-carboxylic acid]
